# Test results reported in US20230165979A1, “COPPER-CONTAINING THERAGNOSTIC COMPOSITIONS AND METHODS OF USE” (Cornell University, priority 2020, published 2023).
# Legend:
# Plasma stability = assay type: in vitro ADME, human; settings: 37° C.
# Description: The plasma stability of [^67Cu]Cu-RPS-085 was determined according to previously described methods (Alt, et al., Mol Pharmaceutics. 2014; 11: 2855-63). Briefly, frozen human plasma was purchased from Sigma Aldrich (USA), thawed at 37° C., and 200 μL aliquots were transferred to Eppendorf tubes. A 100 μL aliquot of [^67Cu]Cu-RPS-085 in 10% EtOH/saline was added to each tube, and the mixture was shaken at 300 rpm for 24 h at 37° C. on an Eppendorf ThermoMixer® C (VWR, USA). The experiment was performed in triplicate. The proteins were precipitated by addition of 600 μL acetonitrile. The samples were centrifuged at 13500 rpm for 3 min in an Eppendorf 5424-R Centrifuge. The supernatant was analyzed by analytical reverse phase (radio)HPLC as described above. After 24 h incubation in human plasma, [^67Cu]Cu-RPS-085 was 97.4±0.4% intact. The lone radiochemical impurity was an unidentified fragment of the parent compound.
# LNCaP xenografts = assay: Tissue biodistribution in mice bearing LNCaP xenografts; assay type: in vivo, male Balb/C nu/nu mice; settings: for activity in kidneys / tumor uptake: i.v., ±SEM
# Description: (§1) All animal studies were approved by the Institutional Animal Care and Use Committee of Weill Cornell Medicine and were undertaken in accordance with the guidelines set forth by the USPHS Policy on Humane Care and Use of Laboratory Animals. The mice were housed under standard conditions in approved facilities with 12 h light/dark cycles. Food and water was provided ad libitum throughout the course of the studies. Male BALB/c athymic nu/nu mice were purchased from the Jackson Laboratory (USA). Prior to inoculation, LNCaP cells were suspended at a density of 4×10^7 cells/mL in a 1:1 mixture of PBS (VWR, USA):Matrigel (BD Biosciences, USA). Each mouse was injected subcutaneously in the left flank with 0.25 mL of the cell suspension. The animals were monitored twice weekly until palpable tumors emerged.
# When tumor size reached approximately 200 mm^3, mice (n=4/time point) were administered 3.8±0.1 MBq [^64Cu]Cu-RPS-085 or 0.8±0.005 MBq [^67Cu]Cu-RPS-085 by intravenous injection. The total mass dose received by each animal was approximately 50 ng (31 pmol) and approximately 28 ng (17 pmol) for the [^64Cu]Cu-RPS-085 and [^67Cu]Cu-RPS-085 studies, respectively. The mice were sacrificed at 4 h, 24 h, or 48 h p.i. ([^64Cu]Cu-RPS-085) or 4 h, 24 h, and 96 h ([^67Cu]Cu-RPS-085). A blood sample was collected, and the following tissues were collected and weighed wet using a digital balance: heart, lungs, liver, stomach, small intestine, large intestine, spleen, pancreas, kidneys, muscle, bone, and tumor. The tissues were counted on a Wizard2 Automatic Gamma Counter (Perkin Elmer, USA) against a 1% injected dose standard. The counts were corrected for decay and for activity injected, and tissue uptake was expressed as percent injected dose per gram (% ID/g). Standard error of the mean (SEM) was calculated for each data point. Statistical analyses were performed using an unpaired t test with GraphPad Prism software. A P value of less than 0.05 was considered significant. The concentration of [67Cu]Cu-RPS-085 found in blood, heart, lungs, liver, small intestine, large intestine, stomach, spleen, pancreas, kidneys, muscle, and bone at 4 h, 24 h, and 96 h, post injection (n=4 per time point) is shown in Table 1 below. Published values for [177Lu]Lu-RPS-063 are shown for comparison; all concentrations are expressed as percent injected dose per organ.
# [1] = Stability of the reformulated radioligand solution at 25° C.; assay type: physicochemical; settings: after reformulation, radioHPLC
# Description: The stability of the reformulated [^64Cu]Cu-RPS-085 solution was determined in triplicate at 25° C. Three 1 mL samples at a radioactivity concentration of approximately 10 MBq/mL and radiochemical purity >99% were transferred to Eppendorf tubes (VWR, USA). The samples were incubated for 24 h at 25° C. in an Eppendorf ThermoMixer® C (VWR, USA). Radiochemical purity was determined by analytical reverse phase (radio)HPLC and expressed as a fraction of the purity of the sample prior to incubation. After reformulation, [^64Cu]Cu-RPS-085 was stable at room temperature for more than 24 h.
# LNCaP xenograft tumors = assay: microPET/CT imaging in LNCaP xenograft mouse model; assay type: in vivo, male BALB/c athymic nu/nu mice
# Description: as §1
# When tumor size was in the range 200-500 mm^3, mice (n=4) were administered 21.2±0.5 MBq [^64Cu]Cu-RPS-085 by intravenous injection. The total mass dose received by each animal was approximately 300 ng (185 pmol). The mice were imaged under isoflurane anesthesia at 1 h, 3 h, 6 h, 24 h, and 48 h post injection (p.i.) by microPET/CT (Inveon™; Siemens Medical Solutions, USA). Total acquisition time was 30 min. A CT scan was obtained immediately before the PET acquisition for both anatomical co-registration and attenuation correction. Images were reconstructed using the Inveon™ software provided by the vendor.
# PSMA on LNCaP cells = biological target: T1, PSMA on LNCaP cells (Homo sapiens, UniProt Q04609); assay: Multi-concentration competitive binding assay against 99mTc-MIP-1427
# T1 construct: host or cells: LNCaP
# Description: The PSMA-expressing human prostate cancer cell line, LNCaP, was obtained from the American Type Culture Collection. Cell culture supplies were obtained from Invitrogen (USA) unless otherwise noted. LNCaP cells were maintained in RPMI-1640 medium supplemented with 10% fetal bovine serum (Hyclone), 4 mM L-glutamine, 1 mM sodium pyruvate, 10 mM N-2-hydroxyethylpiperazine-N-2-ethanesulfonic acid (HEPES), 2.5 mg/mL D-glucose, and […] gentamicin in a humidified incubator at 37° C./5% CO2. Cells were removed from flasks for passage or for transfer to 12-well assay plates by incubating them with 0.25% trypsin/ethylenediaminetetraacetic acid (EDTA).
# The IC50 of metal-free RPS-085 was determined in a multi-concentration competitive binding assay against ^99mTc-MIP-1427 (Hillier et al., J Nucl Med. 2013; 54: 1369-76) for binding to PSMA on LNCaP cells, according to previously described methods (Kelly et al., Eur J Nucl Med Mol Imaging. 2018; 45: 1841-51). RPS-085 was added in to the wells in final concentrations ranging from 1 pM-10 μM. The assay was performed in triplicate, and the IC50 was expressed as mean±standard deviation.
# T1 sequence (Q04609 whole entry): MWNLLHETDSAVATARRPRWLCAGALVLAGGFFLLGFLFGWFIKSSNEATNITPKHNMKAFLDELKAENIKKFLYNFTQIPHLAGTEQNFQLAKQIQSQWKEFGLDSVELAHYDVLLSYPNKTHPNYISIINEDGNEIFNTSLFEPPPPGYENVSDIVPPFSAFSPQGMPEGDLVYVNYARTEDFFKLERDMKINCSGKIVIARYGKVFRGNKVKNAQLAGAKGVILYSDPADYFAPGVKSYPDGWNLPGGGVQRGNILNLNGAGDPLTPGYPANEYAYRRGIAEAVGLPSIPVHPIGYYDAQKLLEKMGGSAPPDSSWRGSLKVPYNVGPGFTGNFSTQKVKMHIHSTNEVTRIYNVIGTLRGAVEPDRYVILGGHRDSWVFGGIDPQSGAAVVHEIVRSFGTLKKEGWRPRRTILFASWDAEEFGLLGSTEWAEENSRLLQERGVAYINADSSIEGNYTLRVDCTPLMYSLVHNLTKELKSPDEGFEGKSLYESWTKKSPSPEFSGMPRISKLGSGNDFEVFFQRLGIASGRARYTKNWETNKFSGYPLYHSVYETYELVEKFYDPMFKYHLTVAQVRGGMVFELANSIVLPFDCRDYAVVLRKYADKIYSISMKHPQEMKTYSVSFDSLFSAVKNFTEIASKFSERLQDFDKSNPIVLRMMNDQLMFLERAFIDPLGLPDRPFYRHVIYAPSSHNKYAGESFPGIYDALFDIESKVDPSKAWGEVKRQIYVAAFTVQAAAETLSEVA
smiles,measurement,setting,value
CC12CNCCNCC(NC(=O)CCCC(=O)NCCCC[C@H](NC(=O)CCOCCOCCOCCn3cc(-c4cccc(NC(=O)NCCCC[C@H](NC(=O)N[C@@H](CCC(=O)O)C(=O)O)C(=O)O)c4)nn3)C(=O)N[C@@H](CCCCNC(=O)Cc3ccc(I)cc3)C(=O)O)(CNCCNC1)CNCCNC2.[67Cu+2] [[^67Cu]Cu-RPS-085],fraction intact after incubation in human plasma,Plasma stability; 24 h,97.4±0.4%
same,uncomplexed [67Cu]Cu2+ after incubation in human plasma,Plasma stability; 24 h,No uncomplexed [^67Cu]Cu^2+ was observed
same,activity in kidneys,LNCaP xenografts; 4 h p.i.,19.7±5.0 % ID/g
same,tumor uptake,LNCaP xenografts; 4 h p.i.,12.5±2.7 % ID/g
same,Concentration in Blood,LNCaP xenografts; 4 h post injection,0.02057 percent injected dose per organ
same,Concentration in Bone,LNCaP xenografts; 4 h post injection,0.003853 percent injected dose per organ
same,Concentration in Heart,LNCaP xenografts; 4 h post injection,0.01078 percent injected dose per organ
same,Concentration in Kidneys,LNCaP xenografts; 4 h post injection,11.63 percent injected dose per organ
same,Concentration in Large Intestine,LNCaP xenografts; 4 h post injection,0.29 percent injected dose per organ
same,Concentration in Liver,LNCaP xenografts; 4 h post injection,0.2795 percent injected dose per organ
same,Concentration in Lungs,LNCaP xenografts; 4 h post injection,0.0358 percent injected dose per organ
same,Concentration in Muscle,LNCaP xenografts; 4 h post injection,0.002757 percent injected dose per organ
same,Concentration in Pancreas,LNCaP xenografts; 4 h post injection,0.00535 percent injected dose per organ
same,Concentration in Small Intestine,LNCaP xenografts; 4 h post injection,0.1493 percent injected dose per organ
same,Concentration in Spleen,LNCaP xenografts; 4 h post injection,0.02732 percent injected dose per organ
same,Concentration in Stomach,LNCaP xenografts; 4 h post injection,0.05547 percent injected dose per organ
same,activity in kidneys,LNCaP xenografts; 24 h p.i.,4.5±0.8 % ID/g
same,tumor uptake,LNCaP xenografts; 24 h p.i.,7.9±0.9 % ID/g
same,Concentration in Blood,LNCaP xenografts; 24 h post injection,0.005816 percent injected dose per organ
same,Concentration in Bone,LNCaP xenografts; 24 h post injection,0.001592 percent injected dose per organ
same,Concentration in Heart,LNCaP xenografts; 24 h post injection,0.0068 percent injected dose per organ
same,Concentration in Kidneys,LNCaP xenografts; 24 h post injection,1.857 percent injected dose per organ
same,Concentration in Large Intestine,LNCaP xenografts; 24 h post injection,0.1354 percent injected dose per organ
same,Concentration in Liver,LNCaP xenografts; 24 h post injection,0.1811 percent injected dose per organ
same,Concentration in Lungs,LNCaP xenografts; 24 h post injection,0.01881 percent injected dose per organ
same,Concentration in Muscle,LNCaP xenografts; 24 h post injection,0.001018 percent injected dose per organ
same,Concentration in Pancreas,LNCaP xenografts; 24 h post injection,0.002143 percent injected dose per organ
same,Concentration in Small Intestine,LNCaP xenografts; 24 h post injection,0.08652 percent injected dose per organ
same,Concentration in Spleen,LNCaP xenografts; 24 h post injection,0.008292 percent injected dose per organ
same,Concentration in Stomach,LNCaP xenografts; 24 h post injection,0.04228 percent injected dose per organ
same,tumor-to-kidney ratio,LNCaP xenografts; 96 h p.i.,3.0±0.5
same,activity in kidneys,LNCaP xenografts; 96 h p.i.,1.7±0.3 % ID/g
same,tumor uptake,LNCaP xenografts; 96 h p.i.,5.1±3.3 % ID/g
same,Concentration in Blood,LNCaP xenografts; 96 h post injection,0.003526 percent injected dose per organ
same,Concentration in Bone,LNCaP xenografts; 96 h post injection,0.001075 percent injected dose per organ
same,Concentration in Heart,LNCaP xenografts; 96 h post injection,0.008094 percent injected dose per organ
same,Concentration in Kidneys,LNCaP xenografts; 96 h post injection,0.6854 percent injected dose per organ
same,Concentration in Large Intestine,LNCaP xenografts; 96 h post injection,0.1379 percent injected dose per organ
same,Concentration in Liver,LNCaP xenografts; 96 h post injection,0.1208 percent injected dose per organ
same,Concentration in Lungs,LNCaP xenografts; 96 h post injection,0.01063 percent injected dose per organ
same,Concentration in Muscle,LNCaP xenografts; 96 h post injection,0.000956 percent injected dose per organ
same,Concentration in Pancreas,LNCaP xenografts; 96 h post injection,0.003044 percent injected dose per organ
same,Concentration in Small Intestine,LNCaP xenografts; 96 h post injection,0.06091 percent injected dose per organ
same,Concentration in Spleen,LNCaP xenografts; 96 h post injection,0.005006 percent injected dose per organ
same,Concentration in Stomach,LNCaP xenografts; 96 h post injection,0.04483 percent injected dose per organ
same,accumulated activity (Ã) in kidneys,LNCaP xenografts; over 96 h p.i.,538 (% ID/g)·h
same,accumulated activity (Ã) in tumors,LNCaP xenografts; over 96 h p.i.,699 (% ID/g)·h
same,Ãtumor relative to [177Lu]PSMA-617,LNCaP xenografts; over 96 h p.i.,1.3 times
same,Ãtumor/Ãkidney ratio,LNCaP xenografts; over 96 h p.i.,1.3
CC12CNCCNCC(NC(=O)CCCC(=O)NCCCC[C@H](NC(=O)CCOCCOCCOCCn3cc(-c4cccc(NC(=O)NCCCC[C@H](NC(=O)N[C@@H](CCC(=O)O)C(=O)O)C(=O)O)c4)nn3)C(=O)N[C@@H](CCCCNC(=O)Cc3ccc(I)cc3)C(=O)O)(CNCCNC1)CNCCNC2.[64Cu+2] [[^64Cu]Cu-RPS-085],time stable in solution at room temperature,[1],more than 24 h
same,background tissue activity,LNCaP xenograft tumors; microPET/CT,low
same,primary route of excretion,LNCaP xenograft tumors; microPET/CT,Renal clearance
same,time by which only tumors could be visualized,LNCaP xenograft tumors; microPET/CT,≤ 24 h
same,time by which uptake in tumors exceeded kidneys,"LNCaP xenograft tumors; mouse, in vivo",≤ 6 h p.i.
same,time of greatest activity in the tumor,"LNCaP xenograft tumors; mouse, in vivo",3 h p.i.
same,activity in the tumor over time,"LNCaP xenograft tumors; over the 48 h imaging window, semi-quantitative, ROIs",virtually stable
same,tumor-to-blood ratio,LNCaP xenografts; 4 h p.i.,230±33
same,tumor-to-kidney ratio,LNCaP xenografts; 4 h p.i.,0.9±0.2
same,activity in kidneys,LNCaP xenografts; 4 h p.i.,13.7±2.3 % ID/g
same,tumor uptake,LNCaP xenografts; 4 h p.i.,12.9±1.4 % ID/g
same,tumor-to-kidney ratio,LNCaP xenografts; 24 h p.i.,3.4±0.7
same,activity in kidneys,LNCaP xenografts; 24 h p.i.,2.4±0.4 % ID/g
same,tumor uptake,LNCaP xenografts; 24 h p.i.,8.3±0.8 % ID/g
same,tumor-to-kidney ratio,LNCaP xenografts; 48 h p.i.,6.1±0.8
same,activity in kidneys,LNCaP xenografts; 48 h p.i.,1.6±0.1 % ID/g
same,tumor uptake,LNCaP xenografts; 48 h p.i.,9.8±1.3 % ID/g
same,tumor-to-muscle ratio,LNCaP xenografts; all observed time points,greater than 500
same,activity in all other tissues including liver,"LNCaP xenografts; all time points (4, 24, 48 h p.i.)",less than 0.5 % ID/g
same,tumor-to-blood ratio,LNCaP xenografts; subsequently (after 4 h p.i.),exceeded 400
CC12CNCCNCC(NC(=O)CCCC(=O)NCCCC[C@H](NC(=O)CCOCCOCCOCCn3cc(-c4cccc(NC(=O)NCCCC[C@H](NC(=O)N[C@@H](CCC(=O)O)C(=O)O)C(=O)O)c4)nn3)C(=O)N[C@@H](CCCCNC(=O)Cc3ccc(I)cc3)C(=O)O)(CNCCNC1)CNCCNC2 [RPS-085],IC50,PSMA on LNCaP cells,29.1 ± 2.4 nM
same,affinity for PSMA relative to parent compound RPS-063,PSMA on LNCaP cells,reduced by approximately one order of magnitude
CC12CNCCNCC(NC(=O)CCCC(=O)NCCCC[C@H](NC(=O)CCOCCOCCOCCn3cc(-c4cccc(NC(=O)NCCCC[C@H](NC(=O)N[C@@H](CCC(=O)O)C(=O)O)C(=O)O)c4)nn3)C(=O)N[C@@H](CCCCNC(=O)Cc3ccc(I)cc3)C(=O)O)(CNCCNC1)C[N@]1CC[N@](C2)[Cu]1 [[^64/67Cu]Cu-RPS-085],time stable in solution at room temperature,[1],more than 24 h
same,time stable in human plasma,Plasma stability,more than 24 h
